Measured values reported in patent US5066644A, “Derivatives of thiazolidine-4-carboxylic acid, its preparation and pharmaceutical compositions containing it” (Poli Industria Chimica S.p.A., priority 1989, dated 1991).
Non-standard residues stand in square brackets, D forms with d. Residues, ends and D or L forms follow the SMILES beside them. ξ: configuration not given here. *: point of attachment. pGlu = O=C1CC[C@@H](C(=O)O)N1; Morpholide = C1CN(*)CCO1; ξThz = O=C(O)C1CSCN1

What was measured:
Format in all cases: in vivo
peritoneal macrophages = experiment: Superoxide anion production by peritoneal macrophages from prednisolone-immunodepressed mice; details: 200 mg/kg/die i.p. + prednisolone 0,5 mg/kg/die/s.c.; macrophages stimulated with phorbol myristate acetate
Excerpt: Since the production of superoxide anion (O2 ) plays an important role in the microbicidal activity of macrophages (N. P. Cumming, M. J. Pabst, J.Exp.Med., 152, 1649, 1980), the showing of a stimulation of the superoxide anion in the macrophages by drugs provides a very important test for the evaluation of immunostimulating activity. The production of O2 in peritoneal macrophages isolated from prednisolone immunodepressed animals treated with the compounds of the invention was therefore evaluated. The mice were treated subcutaneously for two days with 0.5 mg/kg/day of prednisolone and with the compounds under examination at the dose of 100 mg/kg twice a day, whereas the morning of the animals sacrifice the animals received the compounds only. The macrophages were then isolated by means of a peritoneal washing and cultured in RPMI-1640 added with 10% foetal calf serum, at the concentration of 1×10^6 cells/ml at the temperature of ±37° C. Amounts of 1 ml of cell suspension were incubated for 15' at 37° C. with horse heart cytochrome C and stimulated with phorbol myristate acetate (H. Nielsen, Eur.J.Clin.Pharmacol., 30, 90, 1986). A specrophotometric determination at λ=550 nm of the reduced ferricytochroma using an extinction coefficient E(550)=29.5 mM was then carried out. As it turns out from Table 1, the prednisolone treatment induces an immunosuppression resulting in a lesser production of superoxide anion; the contemporaneous treatment with the compounds of the invention stimulates the 02 production by macrophages up to values close to those of control animals. The compounds have an activity which is from similar to higher than that of PGT at equiponderal doses.

E. coli = experiment: Endoperitoneal E. coli infection in mice; details: 200 mg/kg/die os; for N° dead mice/N° treated mice: death-rate recorded 7-8 days after infection
Description: The compounds were tested in endoperitoneal infection in mice. Male COBS CD-1 mice weighing 22-25 g were inoculated i.p. with 0.5 ml/mouse of a pathogenic E.coli suspension (in saline solution+0.5% porcine gastric mucine), having a transmittance of about 50%. The mice were treated orally with the compounds twice a day from two days before until the day of the infection, 7 hours before the inoculation.
The death-rate was recorded for about 7-8 days after the infection.

[1] = system: delayed hypersensitivity by DNCB; experiment: Delayed hypersensitivity induced by DNCB in prednisolone-immunodepressed mice; details: 200 mg/kg/die os; for Weight left ear/Weight right ear: 24 hours after challenge; for Increase %: vs. control group
Description: Male COBS CD-2 mice weighing about 30 g were sensitized with 25 μl of dinitrochlorobenzene (DNCB) at the concentration of 20 mg/ml in acetone applied on a zone of the abdomen depilated at least 2 hours before.
After 12 hours the animals were challenged with 5 μl of DNCB at the concentration of 10 mg/ml in acetone applied on the external surface of the left auricolar pinna.
In order to carry out this operation the mice were slightly anesthetized with ether. The mice were treated with the compounds under examination from two days before until the day of sensitization and with the compounds and with prednisolone (0.5 mg/kg/die s.c.; 0.5 ml/10 g) from the tenth day after sensitization until the day when challenge occurred.
The animals were killed 24 hours after the challenge; both ears were cut and weighed. The values are expressed as the ratio between the left ear (sensitized) and the right one (unsensitized). […] The increase was higher than that obtained after oral administration of PGT.

rosette forming cells = experiment: Rosette forming cells (primary response) in prednisolone-immunodepressed mice; details: 200 mg/kg/die os; for Rosette forming cells change %: vs. control group
Description: The compounds of the invention are also active in the test of the rosette forming cells (primary response; II° type) in prednisolone immunodepressed mice (S. D. Wilson, Immunology, 21, 233, 1971).
Male COBS CD-1 mice weighing about 25 g were treated for 7 days twice a day, with the compounds of the invention and at the second and third day with prednisolone at the dose of 5 mg/kg/s.c. (0.05 ml/10 g).
After 4 days from the start of the treatment the
10 animals were immunized with 5×10^8 sheep red blood cells in 0.2 ml of PBS by intraperitoneal route. The red blood cells were prepared by centrifugating the citrated sheep blood at 1500 rpm for 15 min.; the precipitated red blood cells were washed twice at 1200 rpm for 10 min. in PBS removing the first layer, then suspended again in PBS and counted adjusting at 2.5×10^9 cells/ml.
After 6 days from the immunization the rosette test was carried out by killing the mice and removing the spleen, which was placed in 1 ml of Hank solution in ice-bath and then triturated, homogenated and gauze-filtered. The homogenate was washed twice in Hank, centrifugating at 1200 rpm for 10 min. and then suspended again. The suspension was adjusted to 6×10^7 cells/ml by counting at the Coulter Counter after lysis of the red blood cells. 100 μl of spleen cells suspension (6×10^7 /ml)+100 μl of red blood cells suspension (3×10^8 /ml) were mixed in 0.8 ml of Hank stirring slightly for 1 minute. The samples were incubated for 24 h at+4° C. avoiding any stirring. The samples were then stirred and the number of rosette forming cells/ml was evaluated by means of the Burker apparatus.

[2] = system: reticulo-endothelial system; experiment: Activity of the reticulo-endothelial system (colloidal charcoal clearance) in cyclophosphamide-immunodepressed mouse; details: 100 mg/kg/die i.p.; for Absorbance Δ (0'-20'): means ± SE of 10 mice, absorbance at 640 nm
Description: The compounds of the invention are also active in the test of the activity of the reticulo-endothelial system in the mouse immunodepressed by cyclophosphamide (Biozzi G. et al., Brit. J. Path., 34, 441, 1953). COBS CD-1 mice were injected i.v. with colloidal charcoal (0.32 ml of china ink/ml of saline), 10 μl of retroorbital blood were then taken out immediately before and after 1, 10 and 20 min. from the intravenous injection, the blood sample was placed in 3 ml of HCl 0.1 N and the absorbance was evaluated at 640 nm and the change of absorbance was evaluated between the time 0 and 20 min. The animals were treated with cyclophosphamide (100 mg/kg i.p.) from the third to the fifth day of treatment and with the compounds under test for 10 consecutive days; the day after the last treatment the test was carried out.

Compound: NC(=O)C1CSCN1C(=O)[C@@H]1CCC(=O)N1 (stereo partly drawn) [Ia, 3-Pyroglutamyl-thiazolidine-4-carboxamide] ([pGlu]-[ξThz]-NH2)
- nmol cytochrome C reduced/1 × 10^6 macrophages (mean ± S.E.) (peritoneal macrophages): 9.25 ± 0.48 nmol cytochrome C reduced/1 ×
- Protection (%) (E. coli): 40%
- N° dead mice/N° treated mice (E. coli): 6/10
- Weight left ear/Weight right ear [1]: 1.688 ± 0.029
- Increase % [1]: 27.68%
- Rosette forming cells/spleen cells % (rosette forming cells): 1.140 ± 0.032%
- Rosette forming cells change % (rosette forming cells): +34.12%
- Variation versus the cyclophosphamide treated group % [2]: +15.62%
- Absorbance Δ (0'-20') [2]: 0.370 ± 0.013

Compound: O=C1CC[C@@H](C(=O)N2CSCC2C(=O)N2CCOCC2)N1 (stereo partly drawn) [Ib, N-(3-Pyroglutamyl-thiazolidine-4-carbonyl)morpholine] ([pGlu]-[ξThz]-Morpholide)
- nmol cytochrome C reduced/1 × 10^6 macrophages (mean ± S.E.) (peritoneal macrophages): 9.62 ± 0.63 nmol cytochrome C reduced/1 ×
- Protection (%) (E. coli): 40%
- N° dead mice/N° treated mice (E. coli): 6/10
- Weight left ear/Weight right ear [1]: 1.702 ± 0.026
- Increase % [1]: 28.74%
- Rosette forming cells/spleen cells % (rosette forming cells): 1.138 ± 0.038%
- Rosette forming cells change % (rosette forming cells): +33.88%
- Variation versus the cyclophosphamide treated group % [2]: +19.37%
- Absorbance Δ (0'-20') [2]: 0.382 ± 0.021

Compound: CCNC(=O)C1CSCN1C(=O)[C@@H]1CCC(=O)N1 (stereo partly drawn) [Ic, N-(3-pyroglutamyl-thiazolidine-4-carbonyl)-ethylamine] ([pGlu]-[ξThz]-NHEt)
- nmol cytochrome C reduced/1 × 10^6 macrophages (mean ± S.E.) (peritoneal macrophages): 7.83 ± 0.72 nmol cytochrome C reduced/1 ×
- Protection (%) (E. coli): 40%
- N° dead mice/N° treated mice (E. coli): 6/10
- Weight left ear/Weight right ear [1]: 1.706 ± 0.028
- Increase % [1]: 29.05%
- Rosette forming cells/spleen cells % (rosette forming cells): 1.145 ± 0.032%
- Rosette forming cells change % (rosette forming cells): +34.71%
- Variation versus the cyclophosphamide treated group % [2]: +15.94%
- Absorbance Δ (0'-20') [2]: 0.371 ± 0.016

Compound: O=C1CC[C@@H](C(=O)N2CSCC2C(=O)O)N1 (stereo partly drawn) [PGT, 3-pyroglutamyl-thiazolidine-4-carboxylic acid, reference compound] ([pGlu]-[ξThz]-OH)
- nmol cytochrome C reduced/1 × 10^6 macrophages (mean ± S.E.) (peritoneal macrophages): 8.85 ± 0.75 nmol cytochrome C reduced/1 ×
- Protection (%) (E. coli): 20%
- N° dead mice/N° treated mice (E. coli): 8/10
- Weight left ear/Weight right ear [1]: 1.579 ± 0.027
- Increase % [1]: 19.44%
- Rosette forming cells/spleen cells % (rosette forming cells): 1.125 ± 0.040%
- Rosette forming cells change % (rosette forming cells): +32.35%
- Variation versus the cyclophosphamide treated group % [2]: +14.06%
- Absorbance Δ (0'-20') [2]: 0.365 ± 0.018
